According to US20200316090A1, “TARGETED THERAPEUTICS” (MADRIGAL PHARMACEUTICALS, INC., priority 2012, published 2020):
Where two headings read alike, the source gives them in different places.

Legend:
[1] = Mouse plasma stability (Examples 16-18); type: in vitro ADME; conditions: for Mouse (5 μM) % Remaining 1 h (37° C.) §: data from single parent peak; for Mouse (5 μM) % Remaining 1 h (37° C.) * / Mouse (10 μM) % Remaining 1 h (37° C.) *: sum of both peaks of parent chromatogram
Experimental: This solution was used to precipitate all plasma samples in the study. 200 μL was pipetted into a 96 deepwell plate over dry ice. 10 μL of 1 mM stock in DMSO was added to a 1.5 mL microfuge tube, then 990 μL of plasma. Samples were mixed by vortex, then 50 μL of each sample was added in triplicate to a 96-well plate containing internal standard solution. This was designated the 0 hour time point sample. 250 μL of the remaining plasma sample was added to each of four 96 deepwell plates—one per time point. Samples were incubated at 37° C. with gentle shaking for 0.25, 0.5, and 1 hour. After each time point, one plate of each sample was removed from the shaker and placed on wet ice for approximately 2 minutes. 50 μL plasma aliquots (in triplicate) were added to the deepwell plate containing internal standard solution. After the last time point was extracted, the 96 deepwell plate was vortexed, then centrifuged at 2-8° C. 150 μL of supernatant was collected and 25 μL of water was added. Samples were mixed and analyzed by LC-MS/MS.
The stability of seven SDC-TRAP types in mouse plasma was measured as follows. 990 μL mouse plasma aliquots from a common stock were spiked with 10 μL of 1 mM stock of one of seven SDC-TRAP samples identified in the table below. Each sample was mixed and divided into 250 μL aliquots, each representing time points 0, 15 minutes, 30 minutes or 1 hour. At the prescribed time point, 3×50 μL samples were each mixed with 200 μL of methanol containing internal standard and held on dry ice until all time point samples were extracted. The samples collectively were vortex mixed for 1.5 minutes at 1500 rpm, then centrifuged at 4400 rpm for 10 minutes at 8° C.

[2] = Artificial membrane permeability assay (PAMPA)
Experimental: In order to test the ability SDC-TRAP molecules of the invention to enter cells, an artificial membrane permeability assay (“PAMPA”) was used. […] LC/MS was used in conjunction with PAMPA assays to determine the ability of the SDC-TRAP molecules of the invention to permeate cells.
Pre-coated PAMPA plates were warmed to room temperature for at least 30 minutes prior to adding assay components.
Stock solutions were prepared with the SDC-TRAP molecules to be tested. In order to make a working solution, either 50 μL of 100 μM Stock in DMSO+950 μL of PBS or 50 μL of 200 stock was added to 96 deep well plate, resulting in a 5 μM final concentration or a 10 μM final concentration, respectively. […] 200 μL of PBS was added into the corresponding wells of an acceptor PAMPA plates.
The acceptor plate was lowered onto the donor plate and allowed to incubate for five hours. After five hours, a 50 μL aliquot was removed from each well of each plate and added into a new 96 deep-well plate.
100 μL of methanol containing an internal standard was added to each aliquot and analyzed by LC/MS. The internal standard was 150 ng/ml SDC-TRAP-0002.
In order to calculate the permeability for each SDC-TRAP molecule and the control molecules, the following formula was used:
Permeability (in Unit of Cm/s):
[formula] • C0=initial compound concentration in donor well (mM) • CD (t)=compound concentration in donor well at time t. (mM) • CA (t)=compound concentration in acceptor well at time t. (mM) • VD=donor well volume=0.3 mL • VA=acceptor well volume=0.2 mL • A=filter area=0.3 cm^2 • t=incubation time=18000 s (5 h)
For the data presented in the table below, peak area was used in place of concentration in the formula above.

[3] = Tissue distribution of SDC-TRAP and degradation products in tumor-bearing mice (plasma, tumor, heart); type: in vivo, Female SCID Mouse (H1975); conditions: tissue distribution of SDC-TRAP-0154; for Kp: female, SCID, mouse, in vivo, read-out: Tumor/Plasma Ratio
Experimental: A 150 ng/mL solution of SDC-TRAP-0002 in methanol was prepared using an internal spiking solution (500 μg/mL SDC-TRAP-0002 in DMSO). Using the 10 mM stock solutions of the SDC-TRAP molecule and its Hsp90i binding moiety and effector moiety in DMSO, spiking solutions were prepared at 0.025, 0.05, 0.1, 0.5, 1, 5, 10, 50, 100, 250, and 500 μM in DMSO. 5 μL of each spiking solution was added to a 96-deep well plate.
Quality control standards were prepared from 5 μL of 0.1, 1, and 10 μM calibration standard spiking solution added in triplicate into 96-deep well plate and adding 50 μL of matrix (plasma or homogenized tumor).
To prepare test samples, test plasma was diluted as needed using blank plasma. Tumor samples were pulverized in liquid nitrogen, weighed, and homogenized in PBS at 5× volume to sample weight. 50 μL of unknown plasma or homogenized tumor sample was mixed with 5 μL of DMSO. The samples were extracted by precipitating calibration standards, QC standards, and unknown samples with 200 μL of internal standard solution. The samples were mixed by vortex at room temperature for approximately 1.5 minutes, then centrifuge at 2-8° C. 150 μL of supernatant was collected and 25 μL of water added. Samples were mixed and analyzed by LC-MS/MS.
Samples of plasma, heart and tumor were excised from a euthanized mouse, homogenized in PBS at 5 times tissue weight and diluted in 5 μL DMSO/50 μL sample. Prior to analysis, 55 μL samples and calibration standards were precipitated in 200 μL methanol in 96-well plates. Samples were mixed on a vortex mixer for 1.5 minutes at 1500 rpm at room temperature, then centrifuged at 4400 rpm for 10 minutes at 8° C. 150 μL of each supernatant was transferred to a well of a new 96-well plate, and 25 μL of water was added and mixed with the sample. […] For the analysis of samples from female SCID mice, a gradient of solvent A (water/0.1% formic acid) and B (acetonitrile/0.1% formic acid) was used as in Table A below.

Row | SMILES | Mouse (5 μM) % Remaining 1 h (37° C.) § ([1]; 1 h) [%] | Mouse (5 μM) % Remaining 1 h (37° C.) * ([1]; 1 h) [%] | Mouse (5 μM) % Remaining 19 h (37° C.) [1] [%] | Mouse (10 μM) % Remaining 1 h (37° C.) * ([1]; 1 h) [%] | Mass Retention (%) ([2]; same protocol, second table) | further results
1 | CCc1c2c(nc3ccc(OC(=O)N(C)CCOCCn4ccc5cc(-n6c(O)nnc6-c6cc(C(C)C)c(O)cc6O)ccc54)cc13)-c1cc3c(c(=O)n1C2)COC(=O)C3(O)CC (stereo not shown) [SDC-TRAP-0029, 4,11-diethyl-4-hydroxy-3,14-dioxo-3,4,12,14-tetrahydro-1H-pyrano[3′,4′:6,7]indolizino[1,2-b]quinolin-9-yl(2-(2-(5-(3-(2,4-dihydroxy-5-isopropylphenyl)-5-hydroxy-4H-1,2,4-triazol-4-yl)-1H-indol-1-yl)ethoxy)ethyl)(methyl)carbamate] | 43 | 46 | 29 | 47 | 84.0 | Papp at 5 h [2]: 0.00646 ×10⁻⁶ cm/s; Permeability (10^−6 cm/s) ([2]; same protocol, second table): 0.00646 10^−6 cm/s
2 | CCc1c2c(nc3ccc(O)cc13)-c1cc3c(c(=O)n1C2)COC(=O)C3(CC)OC(=O)N(C)CCOCCn1ccc2cc(-n3c(O)nnc3-c3cc(C(C)C)c(O)cc3O)ccc21 (stereo not shown) [SDC-TRAP-0037, 4,11-diethyl-9-hydroxy-3,14-dioxo-3,4,12,14-tetrahydro-1H-pyrano[3′,4′:6,7]indolizino[1,2-b]quinolin-4-yl (2-(2-(5-(3-(2,4-dihydroxy-5-isopropylphenyl)-5-hydroxy-4H-1,2,4-triazol-4-yl)-1H-indol-1-yl)ethoxy)ethyl) (methyl)carbamate] |  | 67 | 6 | 95 |  | 
3 | CCc1c2c(nc3ccc(OC(=O)N(C)CCCCN4CCN(Cc5ccc(-n6c(O)nnc6-c6cc(C(C)C)c(O)cc6O)cc5)CC4)cc13)-c1cc3c(c(=O)n1C2)COC(=O)C3(O)CC (stereo not shown) [SDC-TRAP-0044, 4,11-diethyl-4-hydroxy-3,14-dioxo-3,4,12,14-tetrahydro-1H-pyrano[3 ‘,4’:6,7]indolizino[1,2-b]quinolin-9-yl (4-(4-(4-(3-(2,4-dihydroxy-5-isopropylphenyl)-5-hydroxy-4H-1,2,4-triazol-4-yl)benzyl)piperazin-1-yl)butyl)(methyl)carbamate] |  | 50 | 41 | 61 |  | 
4 | CCc1c2c(nc3ccc(OC(=O)N4CCN(c5ccc(-n6c(O)nnc6-c6cc(C(C)C)c(O)cc6O)cc5)CC4)cc13)-c1cc3c(c(=O)n1C2)COC(=O)C3(O)CC (stereo not shown) [SDC-TRAP-0045, 4,11-diethyl-4-hydroxy-3,14-dioxo-3,4,12,14-tetrahydro-1H-pyrano[3′,4′:6,7]indolizino[1,2-b]quinolin-9-yl 4-(4-(3-(2,4-dihydroxy-5-isopropylphenyl)-5-hydroxy-4H-1,2,4-triazol-4-yl)phenyl)piperazine-1-carboxylate] | 72 | 77 | 50 | 45 |  | 
5 | CC(C)c1cc(-c2nnc(O)n2-c2ccc(CN3CCN(C(=O)c4ccc(CCc5c[nH]c6nc(N)[nH]c(=O)c56)cc4)CC3)cc2)c(O)cc1O [SDC-TRAP-0068, 2-amino-5-(4-(4-(4-(3-(2,4-dihydroxy-5-isopropylphenyl)-5-hydroxy-4H-1,2,4-triazol-4-yl)benzyl)piperazine-1-carbonyl)phenethyl)-3H-pyrrolo[2,3-d]pyrimidin-4(7H)-one] |  |  |  |  |  | % Remaining (l h) ([1]; mouse, plasma, 1 h, 10 µM): 96.5%
6 | CCNC(=O)c1nnc(-c2cc(C(C)C)c(O)cc2O)n1-c1ccc(Oc2ccc(C(=O)N3CCC(C(=O)OC4(CC)C(=O)OCc5c4cc4n(c5=O)Cc5c-4nc4ccc(O)cc4c5CC)CC3)cc2)cc1 (stereo not shown) [SDC-TRAP-0154, 4,11-Diethyl-9-hydroxy-3,14-dioxo-3,4,12,14-tetrahydro-1H-pyrano[3′,4′:6,7]indolizino[1,2-b]quinolin-4-yl 1-(4-(4-(3-(2,4-dihydroxy-5-isopropylphenyl)-5-(ethylcarbamoyl)-4H-1,2,4-triazol-4-yl)phenoxy)benzoyl)piperidine-4-carboxylate] |  |  |  |  | 10.3 | Kp ([3]; 6 h): 0.44; Kp ([3]; 24 h): 2.68; Kp ([3]; 48 h): 26.8; Plasma Conc. ([3]; 1 h): 215 µM; Tumor Conc. ([3]; 24 h): 0.115 nmol/g of tissue; Tumor Conc. ([3]; 48 h): 0.0921 nmol/g of tissue
